{"source": "paper PMC7156458", "about": "“Synthetic biology based construction of biological activity-related library of fungal decalin-containing diterpenoid pyrones” (Nature Communications, 2020)", "key": {"MCF-7 cells": {"system": "MCF-7 cells", "test": "cell cytotoxic effects against MCF-7 cells (72 h), A490", "type": "cell-based, human"}, "MAGI cells": {"system": "MAGI cells", "test": "cytotoxicity in the anti-HIV assay (CC50)", "type": "cell-based", "conditions": "single determinations"}, "[1]": {"test": "cytotoxicity in Drosophila DL1 cells", "type": "cell-based", "conditions": "Drosophila, DL1 cells (embryonic macrophage-derived), DL1 cells", "procedure": "(§1) We screened the DDPs on the Drosophila assay system for cytotoxicity, inhibitory activity of innate immune signalling and insecticidal activity. The cytotoxicity of the DDPs was evaluated using two cell lines, embryonic macrophage-derived DL1 cells[58]–[60] and larval blood cell-derived l(2)mbn cells, and their IC50 values are listed in Supplementary Table 23."}, "DL1 cells": {"system": "DL1 cells", "test": "cytotoxicity in Drosophila DL1 cells", "type": "cell-based", "conditions": "for IC50: Drosophila melanogaster", "procedure": "as §1"}, "[2]": {"test": "cytotoxicity in Drosophila l(2)mbn cells", "type": "cell-based", "conditions": "Drosophila, l(2)mbn cells (larval blood cell-derived)", "procedure": "as §1"}, "l(2)mbn cells": {"system": "l(2)mbn cells", "test": "cytotoxicity in Drosophila l(2)mbn cells", "type": "cell-based", "conditions": "for Luminescence Raw1: replicate 1; for Luminescence Raw2: replicate 2; for IC50: Drosophila melanogaster, cytotoxicity", "procedure": "as §1"}, "[3]": {"conditions": "replicate 1, relative to DMSO 1%, read-out: % viability, viability 1"}, "[4]": {"conditions": "replicate 2, relative to DMSO 1%, read-out: % viability, viability 2"}}, "note": "Like-named read-outs stand apart in the source and are kept apart here."}
{"compound": "C=C1CC[C@H]2[C@]3(C)C[C@@H](C=C(C)C)O[C@H]3CC[C@]2(C)[C@@H]1Cc1c(O)c(C)c(C)oc1=O", "note": "[Compound 5, subglutinol A]", "values": [{"measurement": "cytotoxicity against the bulk of MCF-7 cells", "setting": "MCF-7 cells", "result": "dose-dependent cytotoxicity"}, {"measurement": "viability at 0.1 µM", "setting": "MCF-7 cells; Homo sapiens, MCF7, 72 h, MCF-7, 72 h, 0.1 µM (DMSO 0.002%), read-out: A490 (control =1) ave", "result": 45.9, "unit": "%"}, {"measurement": "viability at 1 µM", "setting": "MCF-7 cells; Homo sapiens, MCF7, 72 h, MCF-7, 72 h, 1 µM (DMSO 0.02%), read-out: A490 (control =1) ave", "result": 45.5, "unit": "%"}, {"measurement": "viability at 10 µM", "setting": "MCF-7 cells; Homo sapiens, MCF7, 72 h, MCF-7, 72 h, 10 µM (DMSO 0.2%), read-out: A490 (control =1) ave", "result": 8.4, "unit": "%"}, {"measurement": "A490 ave", "setting": "MCF-7 cells; MCF-7, 72 h, 0.1 µM (DMSO 0.002%), control 1.064", "result": 0.489}, {"measurement": "A490 ave", "setting": "MCF-7 cells; MCF-7, 72 h, 1 µM (DMSO 0.02%), control 1.104", "result": 0.503}, {"measurement": "A490 ave", "setting": "MCF-7 cells; MCF-7, 72 h, 10 µM (DMSO 0.2%), control 1.049", "result": 0.088}, {"measurement": "Cytotoxicity", "setting": "MAGI cells", "result": ">10", "unit": "µM"}, {"measurement": "viability at 0.04 µM", "setting": "[1]; [3]", "result": 6.35, "unit": "%"}, {"measurement": "viability at 0.04 µM", "setting": "[1]; [4]", "result": 8.13, "unit": "%"}, {"measurement": "viability at 0.2 µM", "setting": "[1]; [3]", "result": 3.78, "unit": "%"}, {"measurement": "viability at 0.2 µM", "setting": "[1]; [4]", "result": 4.95, "unit": "%"}, {"measurement": "viability at 1 µM", "setting": "[1]; [3]", "result": 3.62, "unit": "%"}, {"measurement": "viability at 1 µM", "setting": "[1]; [4]", "result": 3.84, "unit": "%"}, {"measurement": "viability at 4 µM", "setting": "[1]; [3]", "result": 3.94, "unit": "%"}, {"measurement": "viability at 4 µM", "setting": "[1]; [4]", "result": 4.03, "unit": "%"}, {"measurement": "viability at 10 µM", "setting": "[1]; [3]", "result": 3.69, "unit": "%"}, {"measurement": "viability at 10 µM", "setting": "[1]; [4]", "result": 4.2, "unit": "%"}, {"measurement": "viability at 20 µM", "setting": "[1]; [3]", "result": 3.33, "unit": "%"}, {"measurement": "viability at 20 µM", "setting": "[1]; [4]", "result": 3.4, "unit": "%"}, {"measurement": "Luminescence Raw1", "setting": "DL1 cells; DL1 cells, 0.04 µM, replicate 1", "result": 261750}, {"measurement": "Luminescence Raw2", "setting": "DL1 cells; DL1 cells, 0.04 µM, replicate 2", "result": 334946}, {"measurement": "Luminescence Raw1", "setting": "DL1 cells; DL1 cells, 0.2 µM, replicate 1", "result": 155744}, {"measurement": "Luminescence Raw2", "setting": "DL1 cells; DL1 cells, 0.2 µM, replicate 2", "result": 204060}, {"measurement": "Luminescence Raw1", "setting": "DL1 cells; DL1 cells, 1 µM, replicate 1", "result": 149254}, {"measurement": "Luminescence Raw2", "setting": "DL1 cells; DL1 cells, 1 µM, replicate 2", "result": 158268}, {"measurement": "Luminescence Raw1", "setting": "DL1 cells; DL1 cells, 4 µM, replicate 1", "result": 162234}, {"measurement": "Luminescence Raw2", "setting": "DL1 cells; DL1 cells, 4 µM, replicate 2", "result": 166201}, {"measurement": "Luminescence Raw1", "setting": "DL1 cells; DL1 cells, 10 µM, replicate 1", "result": 152139}, {"measurement": "Luminescence Raw2", "setting": "DL1 cells; DL1 cells, 10 µM, replicate 2", "result": 173051}, {"measurement": "Luminescence Raw1", "setting": "DL1 cells; DL1 cells, 20 µM, replicate 1", "result": 137356}, {"measurement": "Luminescence Raw2", "setting": "DL1 cells; DL1 cells, 20 µM, replicate 2", "result": 139880}, {"measurement": "IC50", "setting": "DL1 cells; DL1 cells, cytotoxicity, average of two replicates, read-out: IC50 Average", "result": "< 40", "unit": "nM"}, {"measurement": "IC50", "setting": "DL1 cells; DL1 cells, cytotoxicity, replicate 1, read-out: IC50 (1)", "result": "< 40", "unit": "nM"}, {"measurement": "IC50", "setting": "DL1 cells; DL1 cells, cytotoxicity, replicate 2, read-out: IC50 (2)", "result": "< 40", "unit": "nM"}, {"measurement": "IC50", "setting": "DL1 cells; DL-1 cell line, cell growth, read-out: IC50", "result": "< 40", "unit": "nM"}, {"measurement": "viability at 0.04 µM", "setting": "[2]; [3]", "result": 139, "unit": "%"}, {"measurement": "viability at 0.04 µM", "setting": "[2]; [4]", "result": 137, "unit": "%"}, {"measurement": "viability at 0.2 µM", "setting": "[2]; [3]", "result": 19.9, "unit": "%"}, {"measurement": "viability at 0.2 µM", "setting": "[2]; [4]", "result": 17, "unit": "%"}, {"measurement": "viability at 1 µM", "setting": "[2]; [3]", "result": 8.99, "unit": "%"}, {"measurement": "viability at 1 µM", "setting": "[2]; [4]", "result": 8.5, "unit": "%"}, {"measurement": "viability at 4 µM", "setting": "[2]; [3]", "result": 8.31, "unit": "%"}, {"measurement": "viability at 4 µM", "setting": "[2]; [4]", "result": 7.53, "unit": "%"}, {"measurement": "viability at 10 µM", "setting": "[2]; [3]", "result": 8.2, "unit": "%"}, {"measurement": "viability at 10 µM", "setting": "[2]; [4]", "result": 8.05, "unit": "%"}, {"measurement": "viability at 20 µM", "setting": "[2]; [3]", "result": 7.67, "unit": "%"}, {"measurement": "viability at 20 µM", "setting": "[2]; [4]", "result": 7.74, "unit": "%"}, {"measurement": "Luminescence Raw1", "setting": "l(2)mbn cells; 0.04 µM", "result": 3571044}, {"measurement": "Luminescence Raw2", "setting": "l(2)mbn cells; 0.04 µM", "result": 3503586}, {"measurement": "Luminescence Raw1", "setting": "l(2)mbn cells; 0.2 µM", "result": 510842}, {"measurement": "Luminescence Raw2", "setting": "l(2)mbn cells; 0.2 µM", "result": 436923}, {"measurement": "Luminescence Raw1", "setting": "l(2)mbn cells; 1 µM", "result": 230676}, {"measurement": "Luminescence Raw2", "setting": "l(2)mbn cells; 1 µM", "result": 218056}, {"measurement": "Luminescence Raw1", "setting": "l(2)mbn cells; 4 µM", "result": 213369}, {"measurement": "Luminescence Raw2", "setting": "l(2)mbn cells; 4 µM", "result": 193177}, {"measurement": "Luminescence Raw1", "setting": "l(2)mbn cells; 10 µM", "result": 210485}, {"measurement": "Luminescence Raw2", "setting": "l(2)mbn cells; 10 µM", "result": 206518}, {"measurement": "Luminescence Raw1", "setting": "l(2)mbn cells; 20 µM", "result": 196783}, {"measurement": "Luminescence Raw2", "setting": "l(2)mbn cells; 20 µM", "result": 198586}, {"measurement": "IC50", "setting": "l(2)mbn cells; average of two replicates, read-out: IC50 Average", "result": 190, "unit": "nM"}, {"measurement": "IC50", "setting": "l(2)mbn cells; average±SEM, read-out: IC50", "result": "190 ± 10", "unit": "nM"}, {"measurement": "IC50", "setting": "l(2)mbn cells; replicate 1, read-out: IC50 (1)", "result": 194, "unit": "nM"}, {"measurement": "IC50", "setting": "l(2)mbn cells; replicate 2, read-out: IC50 (2)", "result": 180, "unit": "nM"}]}
